These results are taken from ChEMBL document CHEMBL1127131, “Penems containing amino acid derived substituents at C-2” (1993).

Each structure is given as a SMILES string. Values after ≈ are worked out from the molar mass of the structure shown.

In one experiment the test system is Bacillus subtilis. In words: Minimum inhibitory concentration required for antibacterial activity against Bacillus subtilis. Type of experiment: functional.
Another experiment has as its system Morganella. In words: Minimum inhibitory concentration required for antibacterial activity against Morganella. Type of experiment: functional.
In a further experiment the test system is Escherichia coli. In words: Minimum inhibitory concentration required for antibacterial activity against Escherichia coli. Type of experiment: functional.
The nature of experiment [1]: Gram-negative geometric mean MIC of antibacterial activity. It is filed as functional.
For another experiment, the system named is Micrococcus luteus. Nature of the experiment: Minimum inhibitory concentration required for antibacterial activity against Sarcina luteus. It is filed as functional, sarcinea luteus.
In experiment [2] the test system is Serratia. Nature of the experiment: Minimum inhibitory concentration for antibacterial activity against Serratia. Type of experiment: functional.
A further experiment relates to Enterobacter. Nature of the experiment: Minimum inhibitory concentration required for antibacterial activity against Enterobacter. It is filed as functional.
A short description of experiment [3]: Gram-positive geometric mean MIC for antibacterial activity (ug/mL). Type of experiment: functional.
Another experiment has as its system Staphylococcus. In words: Minimum inhibitory concentration required for antibacterial activity against Staphylococcus. Type of experiment: functional.
For a further experiment, the system named is Providencia. Nature of the experiment: Minimum inhibitory concentration required for antibacterial activity against Providencia. Type of experiment: functional.
The next experiment concerns Klebsiella. Nature of the experiment: Minimum inhibitory concentration required for antibacterial activity against Klebsiella. Type of experiment: functional.
The test system of another experiment is Salmonella. Nature of the experiment: Minimum inhibitory concentration required for antibacterial activity against Salmonella. It is filed as functional.
The test system of a further experiment is Enterococcus faecalis. In words: Minimum inhibitory required for antibacterial activity against Streptococcus faecalis. It is filed as functional.
Experiment [4] relates to Serratia. In words: Minimum inhibitory concentration required for antibacterial activity against Serratia. It is filed as functional.

Regarding `C[C@@H](O)[C@H]1C(=O)N2C(C(=O)O)=C(CSC[C@@H](N)C(=O)O)S[C@H]12`, the MIC with Bacillus subtilis came out at 0.25 µg/mL (≈ 0.718 µM); in the experiment on Morganella, 2 µg/mL (≈ 5.74 µM); in the experiment with Escherichia coli, 0.284 µg/mL (≈ 0.815 µM); in experiment [1] it was 0.51 µg/mL; against Micrococcus luteus, 0.5 µg/mL (≈ 1.44 µM); against Serratia [2], 1.68 µg/mL (≈ 4.82 µM). Moreover, the MIC was found to be 0.63 µg/mL (≈ 1.81 µM) against Enterobacter; 1.1 µg/mL (≈ 3.16 µM) in experiment [3]; 0.852 µg/mL (≈ 2.45 µM) against Staphylococcus; 2 µg/mL (≈ 5.74 µM) against Providencia; 0.308 µg/mL (≈ 0.884 µM) in the experiment on Klebsiella; 0.25 µg/mL (≈ 0.718 µM) in the experiment with Salmonella. Inhibition of growth against Enterococcus faecalis (MIC) required 16 µg/mL (≈ 45.9 µM).

As to `C[C@@H](O)[C@H]1C(=O)N2C(C(=O)O)=C(CC[C@H](N)C(=O)O)S[C@H]12`, the MIC with Bacillus subtilis came out at 2 µg/mL (≈ 6.32 µM); against Serratia [4] it was 45.3 µg/mL (≈ 143 µM); against Morganella, 64 µg/mL (≈ 202 µM); against Escherichia coli, 9.67 µg/mL (≈ 30.6 µM); in experiment [1], 17.3 µg/mL; against Micrococcus luteus, 8 µg/mL (≈ 25.3 µM). Besides, the MIC with Enterobacter worked out at 16 µg/mL (≈ 50.6 µM); in experiment [3], 3.4 µg/mL (≈ 10.7 µM); against Staphylococcus it was 2.33 µg/mL (≈ 7.37 µM); in the experiment on Providencia, 55.7 µg/mL (≈ 176 µM); in the experiment on Klebsiella, 12.1 µg/mL (≈ 38.3 µM); against Salmonella it was 11.3 µg/mL (≈ 35.8 µM). The MIC with Enterococcus faecalis was determined as 90.5 µg/mL (≈ 286 µM).

With `C[C@@H](O)[C@H]1C(=O)N2C(C(=O)O)=C(SCCOC(N)=O)S[C@H]12` [Sch-34343], the MIC with Bacillus subtilis was determined as 0.06 µg/mL (≈ 0.179 µM); against Morganella it was 2 µg/mL (≈ 5.98 µM); against Escherichia coli it was 0.3 µg/mL (≈ 0.897 µM); in experiment [1] it was 0.57 µg/mL; against Serratia [2] it was 4.8 µg/mL (≈ 14.4 µM); with Enterobacter, 1.3 µg/mL (≈ 3.89 µM). Further, the MIC in experiment [3] is 0.15 µg/mL (≈ 0.449 µM); in the experiment with Staphylococcus it was 0.11 µg/mL (≈ 0.329 µM); against Providencia, 0.87 µg/mL (≈ 2.6 µM); against Klebsiella, 0.35 µg/mL (≈ 1.05 µM); with Salmonella, 0.25 µg/mL (≈ 0.748 µM); against Enterococcus faecalis, 5.7 µg/mL (≈ 17 µM).

For the compound `C[C@@H](O)[C@H]1C(=O)N2C(C(=O)O)=C([C@H](N)CCC(=O)O)S[C@H]12`, the MIC in the experiment with Bacillus subtilis turned out to be 0.25 µg/mL (≈ 0.79 µM); with Serratia [4], 13.4 µg/mL (≈ 42.5 µM); in the experiment on Morganella, 16 µg/mL (≈ 50.6 µM); with Escherichia coli it was 3.11 µg/mL (≈ 9.83 µM); in experiment [1], 5.4 µg/mL; against Micrococcus luteus, 2 µg/mL (≈ 6.32 µM). The MIC came to 6.35 µg/mL (≈ 20.1 µM) against Enterobacter; 1 µg/mL (≈ 3.16 µM) in [3]; 0.735 µg/mL (≈ 2.32 µM) in the experiment on Staphylococcus; 16 µg/mL (≈ 50.6 µM) with Providencia; 3.73 µg/mL (≈ 11.8 µM) against Klebsiella; 4 µg/mL (≈ 12.6 µM) against Salmonella. Also, the MIC against Enterococcus faecalis is 16 µg/mL (≈ 50.6 µM).

`C[C@@H](O)[C@H]1C(=O)N2C(C(=O)O)=C(CSC[C@H](N)C(=O)O)S[C@H]12`: the MIC against Bacillus subtilis came to 0.5 µg/mL (≈ 1.44 µM); with Morganella, 8 µg/mL (≈ 23 µM); with Escherichia coli it was 4 µg/mL (≈ 11.5 µM); in experiment [1], 6.4 µg/mL; against Micrococcus luteus it was 0.5 µg/mL (≈ 1.44 µM); against Serratia [2] it was 19 µg/mL (≈ 54.6 µM). Further, the MIC in the experiment on Enterobacter stood at 10.1 µg/mL (≈ 28.9 µM); in [3] it was 0.94 µg/mL (≈ 2.7 µM); against Staphylococcus, 0.707 µg/mL (≈ 2.03 µM); against Providencia it was 13.9 µg/mL (≈ 40 µM); against Klebsiella it was 4.93 µg/mL (≈ 14.2 µM); in the experiment with Salmonella, 3.18 µg/mL (≈ 9.13 µM). It took 22.6 µg/mL (≈ 65 µM) to inhibit growth against Enterococcus faecalis (MIC).

Consider `C[C@@H](N)C1=C(C(=O)O)N2C(=O)[C@H]([C@@H](C)O)[C@H]2S1`, for which the MIC stood at 26.9 µg/mL (≈ 104 µM) with Serratia [4]; 32 µg/mL (≈ 124 µM) in the experiment on Morganella; 11.7 µg/mL (≈ 45.2 µM) against Escherichia coli; 14.3 µg/mL in [1]; 10.1 µg/mL (≈ 39 µM) with Enterobacter; 0.29 µg/mL (≈ 1.12 µM) in [3]. Also, the MIC in the experiment with Staphylococcus worked out at 0.229 µg/mL (≈ 0.887 µM); in the experiment with Providencia it was 55.7 µg/mL (≈ 216 µM); against Klebsiella, 9.85 µg/mL (≈ 38.1 µM); in the experiment with Salmonella, 5.04 µg/mL (≈ 19.5 µM).

Take `CSC[C@@H](N)C1=C(C(=O)O)N2C(=O)[C@H]([C@@H](C)O)[C@H]2S1`: the MIC in the experiment on Bacillus subtilis amounted to 0.125 µg/mL (≈ 0.411 µM); against Serratia [4], 2.83 µg/mL (≈ 9.3 µM); in the experiment on Morganella it was 2 µg/mL (≈ 6.57 µM); against Escherichia coli it was 0.707 µg/mL (≈ 2.32 µM); in [1], 1.33 µg/mL; against Micrococcus luteus it was 2 µg/mL (≈ 6.57 µM). The MIC was found to be 2 µg/mL (≈ 6.57 µM) in the experiment with Enterobacter; 0.18 µg/mL (≈ 0.591 µM) in experiment [3]; 0.099 µg/mL (≈ 0.325 µM) with Staphylococcus; 9.19 µg/mL (≈ 30.2 µM) in the experiment on Providencia; 0.595 µg/mL (≈ 1.95 µM) in the experiment on Klebsiella; 0.794 µg/mL (≈ 2.61 µM) in the experiment on Salmonella. In the experiment with Enterococcus faecalis, 16 µg/mL (≈ 52.6 µM) was the least that counted as inhibitory (MIC).

Regarding `CSCC[C@H](N)C1=C(C(=O)O)N2C(=O)[C@H]([C@@H](C)O)[C@H]2S1`, the MIC came out at 4 µg/mL (≈ 12.6 µM) against Bacillus subtilis; 38.1 µg/mL (≈ 120 µM) against Serratia [4]; 64.1 µg/mL (≈ 201 µM) in the experiment on Morganella; 11.7 µg/mL (≈ 36.7 µM) against Escherichia coli; 17.6 µg/mL in experiment [1]; 0.031 µg/mL (≈ 0.0974 µM) in the experiment on Micrococcus luteus. The MIC was found to be 20.2 µg/mL (≈ 63.3 µM) in the experiment with Enterobacter; 0.37 µg/mL (≈ 1.16 µM) in [3]; 0.214 µg/mL (≈ 0.672 µM) in the experiment with Staphylococcus; 55.7 µg/mL (≈ 175 µM) against Providencia; 12.1 µg/mL (≈ 38.1 µM) in the experiment with Klebsiella; 10.1 µg/mL (≈ 31.7 µM) with Salmonella. In the experiment with Enterococcus faecalis, this compound yielded an MIC of 64 µg/mL (≈ 201 µM).

By MIC is commonly meant the lowest concentration found to suppress growth.
